Patent publication US11931330B2, “Composition for promoting skeletal muscle activity via induction of mitochondrial biogenesis comprising of azelaic acid as an active ingredient” (Korea University Research and Business Foundation, priority 2018, dated 2024)

Columns and labels:
muscle tissue of mice = assay: Intraperitoneal injection to normal and Olfr544 knockout mice, muscle tissue protein expression; type: in vivo, mouse; details: intraperitoneal 100 mg/kg; for pERK/ERK protein expression increase in muscle: compared with control
Source text: FIG. 7A to FIG. 7E are diagrams showing mechanisms of promoting mitochondrial biogenesis according to Olfr544 activity of an azelaic acid in mice (FIG. 7A: the images showing pCREB, CREB, PGC-1α, ERK1/2, pERK1/2 and LC3 proteins expression, FIG. 7B: analysis for pCREB and CREB protein expression levels, FIG. 7C: analysis for PGC-1α protein expression per an azelaic acid treatment time, FIG. 7D: analysis for pERK and ERK protein expression levels, and FIG. 7E: analysis for LC3 protein expression per an azelaic acid treatment time in muscle tissue extracted 30 and 120 minutes after an azelaic acid is intraperitoneally injected into normal mice and Olfr544 KO mice).
(§1) 8-week-old ICR male […] and C57BL/6J were purchased from Samtako (Gyeonggi-do, Seoul), and Olfr544 knockout mice from which exon 2 (161-428 bp) of an Olfr544 gene was removed using a CRISPR-Cas9 system were purchased from Macrogen (Seoul, Korea). All animal experiments were carried out in accordance with the experimental method (Protocol No. KUIACUC-2016-97) approved by the Animal Experiment Ethics Committee at Korea University. In the breeding environment, a 12-hour light cycle, a room temperature of 25 to 31° C., and relative humidity of […] were maintained. The mice were freely fed a 60% high-fat diet, and randomly divided into 4 groups (n=7, two groups for normal mice, and the other two groups for knockout (KO) mice). For exact Olfr544 activation, the mice were fasted overnight, and then intraperitoneally injected with an azelaic acid (100 mg/kg of body weight). For a control, the same amount of PBS was intraperitoneally injected. In an experiment for long-term administration of an azelaic acid, the azelaic acid was orally administered at a dose of 100 mg/kg of body weight. During the last week of the experimental period (6 weeks), the mice fasted for 16 hours were anesthetized and sacrificed. The collected muscle tissue was put into a freezing tube, immediately put into liquid nitrogen, and then stored at −80° C.

[1] = tested on: muscle tissue of HFD-induced obese mice; assay: Oral administration for 6 weeks to HFD-induced obese normal and Olfr544 knockout mice, muscle tissue qPCR and mtDNA; type: in vivo, mouse; details: oral 100 mg/kg
Procedure: as §1
cDNA was synthesized using RNA extracted by adding the RNAiso plus reagent to murine muscle cells. Subsequently, the synthesized cDNA was subjected to qPCR using the Thunderbird TMSYBR® qPCR Mix reagent (Takara Bio Inc., Japan). A gene expression level was analyzed using the iQ5 Cycler System (Bio-Rad, USA).
(§2) Murine muscle cells were treated with a lysis buffer (20 mM EDTA, 100 mM Tris, 200 mM NaCl, 0.2% Triton X-100, 100 μg/mL), and cultured at 37° C. for 90 minutes, and the extracted supernatant was treated with the same amount of isopropanol and 25 μL of a 4M NaCl solution. After storage at −20° C. overnight, distilled water (D.W.) was added to a pellet obtained by centrifugation (14,000 rpm, RT, 20 min), thereby extracting mtDNA. Afterward, 2 μl of DNA, 10 μl of the SYBR green PCR master mix, 0.5 μL of each of a forward primer and a reverse primer having a concentration of 10 pmol, and 6.6 μL of sterile distilled water were mixed, and qPCR was performed using the Thunderbird TMSYBR® qPCR Mix reagent (Takara Bio Inc., Japan). A gene expression level was analyzed using the iQ5 Cycler System (Bio-Rad, USA).

Olfr544 [2] = assay: Immunoblotting of pCREB, pERK1/2 and LC3II/LC3I in normal and Olfr544 knockdown C2C12 cells; type: cell-based, murine
Procedure: The differentiated skeletal muscle cells, C2C12 cells, were transfected with 200 pmol of scramble (control) or Olfr544 siRNA (Santa Cruz, USA) using the Lipofectamine 2000 reagent (Invitrogen, USA) for 6 hours. Subsequently, one more transfection was performed for 10 to 12 hours. After 24 hours, the transfected cells were treated with an azelaic acid and used for protein extraction.
Protein extraction was performed using an RIPA buffer (10 mM Tris-HCl, pH 7.5, 1% NP-40, 0.1% sodium deoxycholate, 0.1% SDS, 150 mM NaCl, and 1 mM EDTA), a Halt™ protease and a phosphatase inhibitor reagent (Thermo, USA). As primary antibodies, anti-CREB (1:250), anti-p-CREB (Ser133; 1:500), anti-β-actin (1:1000), anti-α-tubulin (1:1000), anti-ERK1/2 (1:500), anti-p-ERK1/2 (Thr53,54, 1:500), and anti-PGC-1α (1:500; Santa Cruz Biotechnology, Santa Cruz, USA) were used. In addition, anti-LC3B (1:500) was purchased from Novus Biologicals (Novus Biologicals, USA). The resulting immunoblotting image was analyzed using the ChemiDoc™ touch imaging system and Image Lab 5.2 software (Bio-Rad, PA, USA).

PGC-1α = PGC-1α gene and protein expression in differentiated C2C12 cells (qPCR, immunoblotting); type: cell-based, murine; details: 50 μM, 24 hours, compared to DMSO control
Procedure: (§3) Murine skeletal muscle cells, C2C12 cells, were purchased from the Korean Cell Line Bank. The cells were cultured using a Dulbecco's modified Eagle's medium (DMEM) supplemented with 20% fetal bovine serum (FBS; HyClone, USA) and 1% antibiotics (penicillin/streptomycin). When the cells reached 50% confluency (the degree of proliferation) under 5% CO2 (v/v) at 37° C., the cells were subcultured and maintained.
(§4) To differentiate the cells, the medium was replaced with DMEM containing 2% horse serum (HyClone), and after 7 days of differentiation, the cells were used in the experiment.
C2C12 cells differentiated for 7 days as described in Example 2-1 were treated with 12.5, 25 or 50 μM of an azelaic acid. […]
qPCR was performed to synthesize cDNA using RNA extracted from cells grown in a culture medium and then treated with 300 μL of the RNAiso plus reagent per well. […] A gene expression level was analyzed using the iQ5 Cycler System (Bio-Rad, USA).
Protein extraction was performed using an RIPA buffer (10 mM Tris-HCl, pH 7.5, 1% NP-40, 0.1% sodium deoxycholate, 0.1% SDS, 150 mM NaCl, and 1 mM EDTA), a Halt™ protease and a phosphatase inhibitor reagent (Thermo, USA). […] The resulting immunoblotting image was analyzed using the ChemiDoc™ touch imaging system and Image Lab 5.2 software (Bio-Rad, PA, USA).

Hepa1c1c-7 cells = assay: MTT assay, cytotoxicity of azelaic acid; type: cell-based; details: 0 to 500 μM, 24 hours, compared to the control group
Procedure: To evaluate cytotoxicity of an azelaic acid, an MTT assay was performed. The MTT assay is a test method utilizing the ability of mitochondria to reduce MTT tetrazolium, which is a yellow water-soluble substrate, to non-water-soluble MTT formazan showing a blue-violet color by a dehydrogenase. The MTT reagent was prepared by being diluted in phosphate buffered saline (PBS) at a concentration of 2 to 5 mg/mL. Hepalcic-7 cells used in this experiment were purchased from the Korean Cell Line Bank, and cultured in a minimum essential medium Eagle alpha modification medium (MEM-alpha, Hyclone) supplemented with 10% FBS and 1% PEST. For this experiment, the Hepa1c1c-7 cells (4×10^4 cell/mL) were seeded into a 96-well plate and incubated at 37° C. under 5% CO2 for 24 hours, and then incubated for 24 hours by adding an azelaic acid in a concentration range of 0 to 500 μM. Afterward, each sample was treated with 100 μL of the MTT reagent (4 mg/mL), incubated at 37° C. under 5% CO2 for 4 hours and treated with 100 μL of dimethyl sulfoxide (DMSO), followed by measuring absorbance at 540 nm. Since the absorbance level is proportional to a cell count, a cell death effect caused by toxicity may be quantified.

Olfr544 [3] = assay: mtDNA and mitochondrial density in Scr siRNA normal and Olfr544 knockdown C2C12 cells; type: cell-based, murine
Procedure: (§5) The differentiated skeletal muscle cells, C2C12 cells, were transfected with 200 pmol of scramble (control) or Olfr544 siRNA duplex (Santa Cruz, USA) using the Lipofectamine 2000 reagent (Invitrogen, USA) for 6 hours. Subsequently, another transfection was performed for 10 to 12 hours. The transfected cells were used for RNA or protein extraction.
as §2, with “The differentiated C2C12 cells were” for “Murine muscle cells were”, “treated with azelaic acid, treated with 300 μL of a lysis” for “treated with a lysis”, “X-100, 100 μg/mL) per well, and cultured” for “X-100, 100 μg/mL), and cultured”
The change in mitochondrial DNA content and abundance were determined using MitoTracker. Olfr544 siRNA-transfected cells were treated with an azelaic acid at a concentration of 50 μM for 24 hours, and then washed with PBS. Afterward, a medium containing 200 nM of the MitoTracker green probe was added to the cells, and the cells were cultured for 30 minutes. The mitochondrial density was measured by quantifying wavelengths of a part binding to the tracker, which absorbs a wavelength at 490 nm and emits a wavelength at 516 nm, using SpectraMax. The images were obtained by the Zeiss LSM700 confocal microscope, and then analyzed using the Zeiss LSM700 version 3.2 software (Carl Zeiss, Germany)

Olfr544 [4] = assay: PGC-1α expression in Scr siRNA normal and Olfr544 knockdown C2C12 cells; type: cell-based, murine; details: 50 μM
Procedure: as §5
qPCR was performed to synthesize cDNA using RNA extracted from cells grown in a culture medium and then treated with 300 μL of the RNAiso plus reagent per well. Subsequently, the synthesized cDNA was subjected to qPCR using the Thunderbird TMSYBR® qPCR Mix reagent (Takara Bio Inc., Japan). A gene expression level was analyzed using the iQ5 Cycler System (Bio-Rad, USA).
Protein extraction was performed using an RIPA buffer (10 mM Tris-HCl, pH 7.5, 1% NP-40, 0.1% sodium deoxycholate, 0.1% SDS, 150 mM NaCl, and 1 mM EDTA), a Halt™ protease and a phosphatase inhibitor reagent (Thermo, USA). As primary antibodies, anti-α-tubulin (1:1000) and anti-PGC-1α (1:500; Santa Cruz Biotechnology, Santa Cruz, USA) were used. The resulting immunoblotting image was analyzed using the ChemiDoc™ touch imaging system and Image Lab 5.2 software (Bio-Rad, PA, USA).

C2C12 cells = assay: mtDNA level and mitochondrial density (MitoTracker) in differentiated C2C12 cells; type: cell-based, murine
Procedure: as §3, §4
C2C12 cells differentiated for 7 days as described in Example 2-1 were treated with 12.5, 25 or 50 μM of an azelaic acid. After 24 hours, RNA and proteins were extracted according to the following method, and used in the experiment. For a control, instead of an azelaic acid, the same amount of DMSO was treated.
After treatment with azelaic acid, the change in mitochondrial density was detected using MitoTracker. C2C12 cells were treated with an azelaic acid for 24 hours, and then washed with PBS. Subsequently, a medium containing […] of MitoTracker, i.e., a green probe, was added thereto, and the cells were cultured for 30 minutes. The mitochondrial density was measured by quantifying wavelengths of a part binding to the tracker, which absorbs a wavelength at 490 nm and emits a wavelength at 516 nm, using SpectraMax. Image analysis was performed using a confocal microscope and Zeiss LSM700 version 3.2 software (Carl Zeiss, Germany).
The differentiated C2C12 cells were treated with azelaic acid, treated with 300 μL of a lysis buffer (20 mM EDTA, 100 mM Tris, 200 mM NaCl, 0.2% Triton X-100, 100 μg/mL) per well, and cultured at 37° C. for 90 minutes, and the extracted supernatant was treated with the same amount of isopropanol and 25 μL of a 4M NaCl solution. After storage at −20° C. overnight, distilled water (D.W.) was added to a pellet obtained by centrifugation (14,000 rpm, RT, 20 min), thereby extracting mtDNA. […] A gene expression level was analyzed using the iQ5 Cycler System (Bio-Rad, USA).

[5] = normal mice, 30 minutes after injection
[6] = normal mice, 120 minutes after injection
[7] = Olfr544 knockdown C2C12 cells, 50 μM, 24 hours
[8] = Scr siRNA-transfected normal C2C12 cells

Structure (SMILES): O=C(O)CCCCCCCC(=O)O [azelaic acid, nonanedioic acid]
- LC3II/LC3I protein expression in muscle (muscle tissue of mice; Olfr544 knockout mice): no change
- pERK/ERK protein expression in muscle (muscle tissue of mice; Olfr544 knockout mice): no change
- LC3II/LC3I protein expression increase in muscle (muscle tissue of mice; [5]): 1.5 fold
- pERK/ERK protein expression increase in muscle (muscle tissue of mice; [5]): 2.5 fold
- LC3II/LC3I protein expression in muscle (muscle tissue of mice; [6]): not changed
- pERK/ERK protein expression increase in muscle (muscle tissue of mice; [6]): 2.8 fold
- PGC-1α mRNA expression in muscle ([1]; Olfr544 knockout HFD mice): no changes
- Tfa gene expression in muscle ([1]; Olfr544 knockout HFD mice): no change
- mt DNAs in muscle ([1]; Olfr544 knockout HFD mice): no change
- Tfa gene expression increase in muscle ([1]; normal HFD mice): about 3.3 fold
- PGC-1α mRNA expression increase in muscle ([1]; normal HFD mice, compared to control group): about 1.9 fold
- mt DNAs in muscle ([1]; normal HFD mice, compared to non-administered mice): increased
- LC3II/LC3I protein expression (Olfr544 [2]; Olfr544 knockdown C2C12 cells): this effect disappeared
- pCREB expression change (Olfr544 [2]; Olfr544 knockdown C2C12 cells): no change
- pCREB expression increase (Olfr544 [2]; normal (Scr siRNA) C2C12 cells): about 2 fold
- LC3II/LC3I protein expression increase (Olfr544 [2]; normal C2C12 cells, compared to the control group): about 3 fold
- phosphorylated ERK1/2 protein expression increase (Olfr544 [2]; skeletal muscle cells (C2C12)): 1.5 fold
- PGC-1α gene expression (PGC-1α): increased
- PGC-1α protein expression (PGC-1α): increased
- toxicity (cell viability, MTT assay) (Hepa1c1c-7 cells): toxicity was not observed at any concentration
- mitochondrial density (quantification) (Olfr544 [3]; C2C12 normal cells, azelaic acid (50 µM)): enrichment of mitochondria
- mitochondrial density change (Olfr544 [3]; [7]): no changes
- mtDNA change (Olfr544 [3]; [7]): no changes
- mtDNA increase (Olfr544 [3]; azelaic acid-treated normal C2C12 cells, 50 μM, 24 hours): about 1.6 fold
- PGC-1α mRNA level (Olfr544 [4]; Olfr544 knockdown C2C12 cells): this effect is not shown
- PGC-1α protein level (Olfr544 [4]; Olfr544 knockdown C2C12 cells): this effect is not shown
- PGC-1α mRNA level (Olfr544 [4]; [8]): significantly increases
- PGC-1α protein level (Olfr544 [4]; [8]): significantly increases
- mitochondrial density (MitoTracker quantification) (C2C12 cells; 50 μM, 24 hours): significantly increased
- mtDNA level, increase over control (C2C12 cells; 50 μM, 24 hours): about 2.5 fold
- mitochondrial density, MitoTracker images under confocal fluorescence microscopy (C2C12 cells; treated group compared to control group): substantial increases
